Patent US4613614A, “Prostaglandin I2 ester and fat emulsion containing the same” (The Green Cross Corporation, priority 1983, dated 1986)
In brackets after ≈: the same amount, converted by molar mass. Structures can show the parent of a compound that is named as a salt.

Key:
[1] = tested on: platelet agglutination (PRP, plasma rich in platelet); assay: Change of agglutination-inhibition rate with incubation time, fat emulsions (evaluated indirectly via c-AMP content in the platelets); assay type: cell-based, Wistar-strain male rats; parameters: concentration or dose not given beside the values; conditions: compounds in fat emulsion, sodium salt of prostaglandin I2 in aq. solution; for agglutination-inhibition rate, incubation time 5 minutes: incubation 5 minutes; for agglutination-inhibition rate, incubation time 20 minutes: incubation 20 minutes; for agglutination-inhibition rate, incubation time 60 minutes: incubation 60 minutes
Excerpt: (§1) Wistar-strain male rats weighing 150 to 200 g were used in the experiment.
(§2) Blood samples were collected from the heart of the animal without anasthesia by the use of a syringe, in which 3.3% sodium citrate solution had been placed beforehand, in such a way that the volume ratio of the sodium citrate solution to the collected blood was 1:9. The collected blood was then quickly centrifuged at 170 G at room temperature to obtain plasma rich in platelet (hereinafter referred to as PRP).
Separately, by using fat emulsions prepared as in Example 3 and extending the incubation time to 5, 20 and 60 minutes, the changes in agglutination-inhibition rate were observed. Each fat emulsion was prepared to contain 1 mg in terms of prostaglandin I2 of a test compound. It was incubated with PRP for a predetermined time; the platelets were then washed; and the content of c-AMP in the platelets was determined, thus to evaluate indirectly the inhibitory action on platelet agglutination. A physiological saline solution of sodium salt of prostaglandin I2 was used as the control.

[2] = tested on: platelet agglutination (PRP, plasma rich in platelet); assay: as above; assay type: cell-based, Wistar-strain male rats; parameters: concentration or dose not given beside the values; conditions: incubation 1 minute; compounds in fat emulsion, sodium salt of prostaglandin I2 in aq. solution
[3] = tested on: platelet agglutination (PRP, plasma rich in platelet); assay: Platelet-agglutination inhibition test (rat PRP, adenosine phosphate, aggregometer); assay type: cell-based, Wistar-strain male rats; conditions: 1 min, concentration in terms of prostaglandin I2 reducing maximum agglutination rate by 50% relative to control, 1 min at 37° C., 1 mM adenosine phosphate, read-out: ED50 (the source's name)
Excerpt: as §1, §2
Then, the compounds 1, 2 and 3 as well as sodium salt of prostaglandin I2 were respectively dissolved in ethanol to a concentration of 1 mg/ml in terms of prostaglandin I2, and thereafter diluted with physiological saline to form solutions of various concentrations.
The platelet-agglutination inhibition test was carried out in the following manner.
The above-mentioned PRP (500 μl) and the above solution 50 μl) containing the drug tested were incubated at 37° C. for one minute in an aggregometer cuvette; then 1 mM adenosine phosphate solution (50 μl) was added to the mixture to obtain an agglutination curve on the instrument and determine the maximum agglutination rate. A mixture of 500 μl of PRP, 50 μl of physiological saline and 50 μl of 1 mM adenosine phosphate solution was used as the control to obtain similarly an agglutination curve.
The concentration (ED50) in terms of prostaglandin I2 of each of the drugs to be tested, at which the solution containing the drug reduces the percentage of the maximum agglutination rate by 50% relative to that of the control taken as 100, was calculated.

artery = conditions: cited from earlier work
[4] = cited from earlier work
other smooth muscles = conditions: cited from earlier work
[5] = tested on: human platelet agglutination; conditions: cited from earlier work
platelet agglutination = conditions: cited from earlier work

SMILES | agglutination-inhibition rate, incubation time 5 minutes [1] | agglutination-inhibition rate, incubation time 20 minutes [1] | agglutination-inhibition rate, incubation time 60 minutes [1] | agglutination-inhibition rate, incubation time 1 minute [2] | IC50 [3] | artery-relaxative or artery-contractive action (artery) | water solubility [4] | relaxation of other smooth muscles (other smooth muscles) | suppression of human platelet agglutination action induced by arachidonic acid [5] | platelet-agglutination action (platelet agglutination)
CCCCCC(O)C=CC1C(O)CC2OC(=CCCCC(=O)OCC(=O)OCCCC)CC21 (centres unmarked) [Compound 1, butoxycarbonylmethyl prostaglandin I2 ester] | 11% | 7% | 3% | 13% | 4.6 µg/mL (≈ 9.86 µM) | – | – | – | – | –
CCCCCC(O)C=CC1C(O)CC2OC(=CCCCC(=O)OCOC(=O)C(C)(C)C)CC21 (centres unmarked) [Compound 2, Pivaloyloxymethyl prostaglandin I2 ester] | 78% | 51% | 27% | 93% | 0.5 µg/mL (≈ 1.07 µM) | – | – | – | – | –
CCCCCC(=O)OC(C)OC(=O)CCCC=C1CC2C(CC(O)C2C=CC(O)CCCCC)O1 (centres unmarked) [Compound 3, 1-Hexanoyloxyethyl prostaglandin I2 ester] | 71% | 65% | 48% | 78% | 0.7 µg/mL (≈ 1.42 µM) | – | – | – | – | –
CCCCC[C@H](O)/C=C/[C@@H]1[C@H]2C/C(=C/CCCC(=O)O)O[C@H]2C[C@H]1O [Sodium salt of prostaglandin I2, reference compound] | 17% | 0% | 0% | 100% | 0.4 µg/mL | – | – | – | – | –
CCCCC[C@H](O)/C=C/[C@@H]1[C@H]2C/C(=C/CCCC(=O)O)O[C@H]2C[C@H]1O [prostaglandin I2, (5Z,13E)-(9α, 11α, 15S)-6,9-epoxy-11,15-dihydroxyprosta-5,13-dienoic acid] | – | – | – | – | – | powerful artery-relaxative action | fairly water-soluble | does not relax other smooth muscles | strongly suppresses | –
CCCCCC(O)C=CC1OC2CC(O2)C1CC=CCCCC(=O)O (centres unmarked) [thromboxan A2] | – | – | – | – | – | artery-contractive action | – | – | – | platelet-agglutination action
